Data: patent US10945435B2, “Imidazopyrimidine derivatives with sulfur containing phenyl and pyridyl substituents” (SYNGENTA PARTICIPATIONS AG, priority 2017, dated 2021)

Columns and labels:
[1] = test system: Myzus persicae (Green Peach Aphid); test: Example B9 Myzus persicae feeding/contact activity; format: in vivo; details: foliar, 144 h, application rate of 200 ppm, mixed-age aphids on sprayed sunflower leaf discs, 6 days after infestation
Description: Myzus persicae (Green Peach Aphid): Feeding/Contact Activity
Sunflower leaf discs were placed onto agar in a 24-well microtiter plate and sprayed with aqueous test solutions prepared from 10,000 ppm DMSO stock solutions. After drying, the leaf discs were infested with an aphid population of mixed ages. The samples were assessed for mortality 6 days after infestation.

[2] = test system: Diabrotica balteata (Corn Root Worm); test: Example B4 Diabrotica balteata mortality; format: in vivo; details: 96 h, application rate of 200 ppm, L2 larvae on sprayed maize sprouts, 4 days after infestation
Description: (§1) Diabrotica Balteata (Corn Root Worm):
(§2) Maize sprouts placed onto an agar layer in 24-well microtiter plates were treated with aqueous test solutions prepared from 10,000 ppm DMSO stock solutions by spraying. After drying, the plates were infested with L2 larvae (6 to 10 per well). The samples were assessed for mortality 4 days after infestation.

[3] = test system: Diabrotica balteata (Corn Root Worm); test: Example B2 Diabrotica balteata mortality and growth inhibition; format: in vivo; details: 96 h, application rate of 200 ppm, L2 larvae on sprayed maize sprouts, 4 days after infestation, read-out: effect in at least one of the two categories (mortality or growth inhibition)
Description: Diabrotica balteata (Corn Root Worm)
as §2, with “mortality and growth inhibition in comparison to untreated samples” for “mortality”

[4] = test system: Spodoptera littoralis (Egyptian Cotton Leaf Worm); test: Example B16 Spodoptera littoralis feeding/contact activity; format: in vivo; details: foliar, 72 h, application rate of 200 ppm, L1 larvae on sprayed cotton leaf discs, 3 days after infestation
Description: Spodoptera littoralis (Egyptian Cotton Leaf Worm): Feeding/Contact Activity
(§3) Cotton leaf discs were placed onto agar in 24-well microtiter plates and sprayed with aqueous test solutions prepared from 10,000 ppm DMSO stock solutions. After drying the leaf discs were infested with five L1 larvae. The samples were assessed for mortality 3 days after infestation.

[5] = test system: Euschistus heros (Neotropical Brown Stink Bug); test: Example B5 Euschistus heros mortality and growth inhibition; format: in vivo; details: 120 h, application rate of 200 ppm, N2 nymphs on sprayed soybean leaves, 5 days after infestation, read-out: effect in at least one of the two categories (mortality or growth inhibition)
Description: Euschistus heros (Neotropical Brown Stink Bug)
(§4) Soybean leaves on agar in 24-well microtiter plates were sprayed with aqueous test solutions prepared from 10,000 ppm DMSO stock solutions. After drying the leaves were infested with N2 nymphs. The samples were assessed for mortality and growth inhibition in comparison to untreated samples 5 days after infestation.

[6] = test system: Euschistus heros (Neotropical Brown Stink Bug); test: Example B7 Euschistus heros feeding/contact activity; format: in vivo; details: 120 h, application rate of 200 ppm, N2 nymphs on sprayed soybean leaves, 5 days after infestation
Description: Euschistus heros (Neotropical Brown Stink Bug): Feeding/Contact Activity
Soybean leaves on agar in 24-well microtiter plates were sprayed with aqueous test solutions prepared from 10,000 ppm DMSO stock solutions. After drying the leaves were infested with N2 nymphs. The samples were assessed for mortality 5 days after infestation.

[7] = test system: Plutella xylostella (Diamond Back Moth); test: Example B12 Plutella xylostella feeding/contact activity; format: in vivo; details: 120 h, application rate of 200 ppm, L2 larvae on treated artificial diet, 5 days after infestation
Description: Plutella xylostella (Diamond Back Moth): Feeding/Contact Activity
(§5) 24-well microtiter plates with artificial diet were treated with aqueous test solutions prepared from 10,000 ppm DMSO stock solutions by pipetting. After drying, the plates were infested with L2 larvae (10 to 15 per well). The samples were assessed for mortality 5 days after infestation.

[8] = test system: Diabrotica balteata (Corn Root Worm); test: Example B3 Diabrotica balteata growth inhibition; format: in vivo; details: 96 h, application rate of 200 ppm, L2 larvae on sprayed maize sprouts, 4 days after infestation
Description: as §1
as §2, with “growth inhibition in comparison to untreated samples” for “mortality”, “infestation. Control of Diabrotica balteata by a test sample is given when the growth inhibition is higher than in the untreated sample.” for “infestation.”

[9] = test system: Spodoptera littoralis (Egyptian Cotton Leaf Worm); test: Example B14 Spodoptera littoralis anti-feeding activity; format: in vivo; details: foliar, 72 h, application rate of 200 ppm, L1 larvae on sprayed cotton leaf discs, 3 days after infestation, read-out: control (anti-feeding effect)
Description: Spodoptera littoralis (Egyptian Cotton Leaf Worm): Anti-Feeding Activity
as §3, with “anti-feeding effect in comparison to untreated samples” for “mortality”, “infestation. Control of Spodoptera littoralis by a test sample is given when the anti-feedant effect is higher than the untreated sample.” for “infestation.”

[10] = test system: Plutella xylostella (Diamond Back Moth); test: Example B11 Plutella xylostella growth inhibition activity; format: in vivo; details: 120 h, application rate of 200 ppm, L2 larvae on treated artificial diet, 5 days after infestation
Description: Plutella xylostella (Diamond Back Moth): Growth Inhibition Activity
as §5, with “growth inhibition in comparison to untreated samples” for “mortality”, “infestation. Control of Plutella xylostella by a test sample is given when the growth inhibition is higher than the untreated sample.” for “infestation.”

[11] = test system: Frankliniella occidentalis (Western Flower Thrips); test: Example B8 Frankliniella occidentalis feeding/contact activity; format: in vivo; details: foliar, 168 h, application rate of 200 ppm, mixed-age population on sprayed sunflower leaf discs, 7 days after infestation
Description: Frankliniella occidentalis (Western Flower Thrips): Feeding/Contact Activity
Sunflower leaf discs were placed on agar in 24-well microtiter plates and sprayed with aqueous test solutions prepared from 10,000 DMSO stock solutions. After drying the leaf discs were infested with a Frankliniella population of mixed ages. The samples were assessed for mortality 7 days after infestation.

[12] = test system: Bemisia tabaci (Cotton White Fly); test: Example B1 Bemisia tabaci feeding/contact activity; format: in vivo; details: foliar, 144 h, application rate of 200 ppm, adult white flies on sprayed cotton leaf discs, 6 days after incubation
Description: Bemisia tabaci (Cotton White Fly): Feeding/Contact Activity
Cotton leaf discs were placed on agar in 24-well microtiter plates and sprayed with aqueous test solutions prepared from 10,000 ppm DMSO stock solutions. After drying the leaf discs were infested with adult white flies. The samples were checked for mortality 6 days after incubation.

[13] = test system: Plutella xylostella (Diamond Back Moth); test: Example B13 Plutella xylostella mortality and growth inhibition; format: in vivo; details: 120 h, application rate of 200 ppm, L2 larvae on treated artificial diet, 5 days after infestation, read-out: effect in at least one of the two categories (mortality or growth inhibition)
Description: Plutella xylostella (Diamond Back Moth)
as §5, with “mortality and growth inhibition in comparison to untreated samples” for “mortality”

[14] = test system: Myzus persicae (Green Peach Aphid); test: Example B10 Myzus persicae systemic activity; format: in vivo; details: 144 h, test rate of 24 ppm, roots of infested pea seedlings in test solution, 6 days
Description: Myzus persicae (Green Peach Aphid). Systemic Activity
Roots of pea seedlings infested with an aphid population of mixed ages were placed directly into aqueous test solutions prepared from 10,000 DMSO stock solutions. The samples were assessed for mortality 6 days after placing seedlings into test solutions.

[15] = test system: Euschistus heros (Neotropical Brown Stink Bug); test: Example B6 Euschistus heros growth inhibition; format: in vivo; details: 120 h, application rate of 200 ppm, N2 nymphs on sprayed soybean leaves, 5 days after infestation
Description: Euschistus heros (Neotropical Brown Stink Bug): Growth Inhibition
as §4, with “for” for “for mortality and”, “infestation. Control of Euschistus heros by a test sample is given when the growth inhibition is higher than the untreated sample.” for “infestation.”

| melting point | SMILES | mortality at 200 ppm [1] | mortality at 200 ppm [2] | percent effect (mortality or growth inhibition) at 200 ppm [3] | mortality at 200 ppm [4] | percent effect (mortality or growth inhibition) at 200 ppm [5] | mortality at 200 ppm [6] | mortality at 200 ppm [7] | pest or weed control at 200 ppm [9] | mortality at 200 ppm [12] | percent effect (mortality or growth inhibition) at 200 ppm [13] | mortality at 24 ppm [14] | further results |
| --- | --- | --- | --- | --- | --- | --- | --- | --- | --- | --- | --- | --- | --- |
|  | CCS(=O)(=O)c1cc(OCC(F)F)cnc1-c1cn2cnc(C(F)(F)F)cc2n1 [Compound P8, 2-[5-(2,2-difluoroethoxy)-3-ethylsulfonyl-2-pyridyl]-7-(trifluoromethyl)imidazo[1,2-c]pyrimidine] | ≥ 80% | ≥ 80% | ≥ 80% | ≥ 80% | ≥ 80% | ≥ 80% | ≥ 80% | ≥ 80% | ≥ 80% | ≥ 80% | ≥ 80% | inhibition at 200 ppm [8]: ≥ 80%; inhibition at 200 ppm [10]: ≥ 80%; mortality at 200 ppm [11]: ≥ 80% |
| 229 to 232 °C | CCS(=O)(=O)c1cc(O)cnc1-c1cn2cnc(C(F)(F)F)cc2n1 [Compound P10, 5-ethylsulfonyl-6-[7-(trifluoromethyl)imidazo[1,2-c]pyrimidin-2-yl]pyridin-3-ol] |  |  |  |  |  |  |  |  |  |  |  |  |
|  | CCS(=O)(=O)c1cc(OCC(C)C)cnc1-c1cn2cnc(C(F)(F)F)cc2n1 [Compound P14, 2-(3-ethylsulfonyl-5-isobutoxy-2-pyridyl)-7-(trifluoromethyl)imidazo[1,2-c]pyrimidine] | ≥ 80% | ≥ 80% | ≥ 80% | ≥ 80% | ≥ 80% | ≥ 80% | ≥ 80% | ≥ 80% |  | ≥ 80% |  | inhibition at 200 ppm [15]: ≥ 80% |
|  | CCS(=N)(=O)c1cc(OC(C)(C)C#N)cnc1-c1cn2cnc(C(F)(F)F)cc2n1 (centres unmarked) [Compound P20, 2-[[5-(ethylsulfonimidoyl)-6-[7-(trifluoromethyl)imidazo[1,2-c]pyrimidin-2-yl]-3-pyridyl]oxy]-2-methyl-propanenitrile] | ≥ 80% | ≥ 80% | ≥ 80% | ≥ 80% |  |  | ≥ 80% | ≥ 80% | ≥ 80% | ≥ 80% | ≥ 80% | inhibition at 200 ppm [8]: ≥ 80%; inhibition at 200 ppm [10]: ≥ 80% |
|  | CCS(=O)(=O)c1cc(OC[S+](C)[O-])cnc1-c1cn2cnc(C(F)(F)F)cc2n1 (centres unmarked) [Compound P22, 2-[3-ethylsulfonyl-5-(methylsulfinylmethoxy)-2-pyridyl]-7-(trifluoromethyl)imidazo[1,2-c]pyrimidine] | ≥ 80% |  |  |  | ≥ 80% | ≥ 80% |  |  | ≥ 80% |  | ≥ 80% | inhibition at 200 ppm [15]: ≥ 80%; mortality at 200 ppm [11]: ≥ 80% |
| 209 to 210 °C | CCS(=O)(=O)c1cc(OCCS(C)(=O)=O)cnc1-c1cn2cnc(C(F)(F)F)cc2n1 [Compound P24, 2-[3-ethylsulfonyl-5-(2-methylsulfonylethoxy)-2-pyridyl]-7-(trifluoromethyl)imidazo[1,2-c]pyrimidine] |  |  |  |  |  |  |  |  |  |  |  |  |
| 86 to 88 °C | CCS(=O)(=O)c1cc(OCC(F)(F)F)cnc1-c1nc2cc(C(F)(F)F)ncn2c1Br [Compound P25, 3-bromo-2-[3-ethylsulfonyl-5-(2,2,2-trifluoroethoxy)-2-pyridyl]-7-(trifluoromethyl)imidazo[1,2-c]pyrimidine] |  |  |  |  |  |  |  |  |  |  |  |  |
| 248 to 250 °C | CCS(=O)(=O)c1cc(OCS(C)(=O)=O)cnc1-c1cn2cnc(C(F)(F)C(F)(F)F)cc2n1 [Compound P26, 2-[3-ethylsulfonyl-5-(methylsulfonylmethoxy)-2-pyridyl]-7-(1,1,2,2,2-pentafluoroethyl)imidazo[1,2-c]pyrimidine] |  |  |  |  |  |  |  |  |  |  |  |  |
| 230 to 234 °C | CCS(=O)(=O)c1cc(O)cnc1-c1nc2cc(C(F)(F)F)ncn2c1Br [Compound P27, 6-[3-bromo-7-(trifluoromethyl)imidazo[1,2-c]pyrimidin-2-yl]-5-ethylsulfonyl-pyridin-3-ol] |  |  |  |  |  |  |  |  |  |  |  |  |
